{
  "source": "paper PMC6724072",
  "about": "“Biotransformation of the Mycotoxin Enniatin B1 by CYP P450 3A4 and Potential for Drug-Drug Interactions” (Metabolites, 2019)",
  "key": {"CYP3A4 [1]": {"test_system": "CYP3A4", "design": "method as in PMID 16467307", "details": "read-out: Ks; cited from earlier work"}, "CYP3A4 [2]": {"target": "T1, CYP3A4 (Homo sapiens, UniProt P08684, S18F)", "T1 sequence (P08684 with tags, fused parts or gaps S18F limits assumed)": "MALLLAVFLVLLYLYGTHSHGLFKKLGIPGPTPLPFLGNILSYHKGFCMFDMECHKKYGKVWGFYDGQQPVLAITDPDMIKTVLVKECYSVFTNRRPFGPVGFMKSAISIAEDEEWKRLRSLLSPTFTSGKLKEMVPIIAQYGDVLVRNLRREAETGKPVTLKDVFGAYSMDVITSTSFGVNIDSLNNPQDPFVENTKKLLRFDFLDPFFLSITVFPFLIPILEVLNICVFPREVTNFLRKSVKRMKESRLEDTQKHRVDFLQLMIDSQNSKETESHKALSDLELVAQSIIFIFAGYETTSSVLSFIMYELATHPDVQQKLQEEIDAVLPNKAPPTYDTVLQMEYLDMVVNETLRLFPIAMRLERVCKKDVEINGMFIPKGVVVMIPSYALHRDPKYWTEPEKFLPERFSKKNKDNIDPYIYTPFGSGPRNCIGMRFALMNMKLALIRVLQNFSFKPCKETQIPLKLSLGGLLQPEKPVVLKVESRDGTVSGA", "T1 sequence (P02647 79-267 partner limits assumed)": "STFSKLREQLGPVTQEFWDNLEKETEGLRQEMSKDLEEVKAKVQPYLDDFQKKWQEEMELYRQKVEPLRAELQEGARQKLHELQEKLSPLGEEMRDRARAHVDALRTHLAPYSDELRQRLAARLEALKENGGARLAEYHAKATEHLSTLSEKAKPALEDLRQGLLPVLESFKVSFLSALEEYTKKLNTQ"}, "CYP3A4 [3]": {"target": "T1, CYP3A4", "details": "for PGS hydroxylation rate (sum of 2β- and 6β-OH-PGS): ND, without DON, mean ± SEM"}, "CYP3A [4]": {"test_system": "CYP3A", "details": "porcine hepatic microsomes; cited from earlier work"}, "CYP3A4 [5]": {"target": "T1, CYP3A4", "details": "ND; 15 min; DON 10 µM and 50 µM; different ENNB1 concentrations"}, "CYP3A [6]": {"test_system": "CYP3A"}, "CYP3A4/5": {"test_system": "CYP3A4/5", "details": "HLM, 10 µM DON and […] ENNB1"}, "[7]": {"assay": "ENNB1 substrate depletion assay in human liver microsomes", "format": "in vitro ADME", "details": "HLM", "protocol": "(§1) The kinetic parameters were derived in HLM assays from the substrate depletion rate constants (ke) that were determined by regression analysis of measured peak areas of the added substrate versus time curves (A(t) = b + a*e^−ket), as described before. Briefly, the assay half-lifes (t1/2, assay = ln2/ke) and assay clearances (CLassay = Vassay*ke) were calculated under consideration of the assay volume (Vassay). Disregarding the potential protein binding of the substrate in the reaction mixture (assuming that the fraction unbound in the assay (fu, assay ~ 1)), the determined assay clearances approximated the intrinsic assay clearances (CLint, assay), which can be described by the Michaelis–Menten equation parameters maximal velocity (vmax, assay) and […] (KM, assay) under the condition that the substrate concentration is well below the KM-value (CLint, assay = vmax, assay/KM, assay). The KM, assay for ENNB1 depletion was determined with different initial concentrations by plotting the determined depletion rate constants versus the respective concentrations. The inflection point of the curve in a lin-log plot represented the KM-value, which occurred when ke is half of the theoretical maximum k0 at infinitesimally low ENNB1 concentrations (ke = k0[ENNB1]→0 *(1 − [ENNB1]/([ENNB1] + KM)).\nENNB1 and its major biotransformation products were analysed while using a Finnigan LTQ linear ion trap mass spectrometer (Thermo Fisher Scientific Inc., Waltham, MA, USA) that was coupled to an ACQUITY UPLC System (Waters). Separation was achieved on a 50 × 2.1-mm i.d. C18 3-μm SunFire column (Waters) with 0.5 μm pre-column filter (Supelco, Bellefonte, PA, USA). The mobile phase was composed of water (A) and MeCN (B) (both containing 2 mM NH4COOH and 2 mM HCOOH). The optimised linear gradient started at 40% B and was held for 1.5 min, before it was raised to […] over 14.5 min. The column was flushed with […] for 2 min, returned to 40% B, and equilibrated for 2.0 min. The total run time was 20 min.\nENNB1 and its putative metabolites were identified by their molecular weights (mass-to-charge (m/z) ratios) and specific retention times. In addition, the MS^n data of the sodiated molecular ions were specified in fragmentation experiments and used for confirmation. The measured peak areas of the ammoniated molecular ions ([M+NH4]^+) were used for the determination of in vitro kinetic parameters and for quantification purposes."}, "[8]": {"assay": "In vitro-to-in vivo extrapolation of kinetic parameters (well-stirred liver model)", "format": "in vitro ADME", "protocol": "as §1\nThe CLint, assay in HLM was upscaled to the assay-independent, intrinsic liver clearance (CLint = CLint, assay*MRI*RLW/Protassay) by considering the amounts of microsomal protein in the assay (Protassay), human relative liver weight (RLW), and human microsomal recovery index (MRI) (Table 1). In vitro-to-in vivo extrapolation (IVIVE) was performed by applying the well-stirred liver model and calculating the systemic blood clearances (CLb) from the CLint, while considering the human hepatic blood flow (Q) (CLb = Q*CLint*fu,b/(Q + CLint*fu,b)). […] The maximal bioavailability (fmax) after oral application was calculated under the assumption of complete absorption from the gastrointestinal tract (fa = 1) as fmax = 1 − CLb/Q."}, "[9]": {"design": "method as in PMID 24239892, PMID 23598119", "details": "pigs; cited from earlier work"}, "in vitro": {"assay": "in vitro", "details": "human, microsomes, pH 7.4"}, "[10]": {"design": "method as in PMID 27632250", "details": "chicken; cited from earlier work"}, "female mice": {"test_system": "female mice", "design": "method as in doi:10.2903/sp.efsa.2018.EN-1406", "details": "cited from earlier work"}, "CYP3A4 [11]": {"test_system": "CYP3A4", "details": "cited from earlier work"}, "CYP3A [12]": {"test_system": "CYP3A", "assay": "in vitro", "details": "human, microsomes, pH 7.4"}},
  "note": "Like-named read-outs stand apart in the source and are kept apart here.",
  "data": [
    {"smiles": "CC(C)C[C@H]1C(=O)N2CCC[C@H]2[C@]2(O)O[C@](NC(=O)[C@@H]3C=C4c5cccc6[nH]c(Br)c(c56)C[C@H]4N(C)C3)(C(C)C)C(=O)N12", "note": "[BCT, bromocriptine, reference compound]", "values": [
      {"measurement": "Kd", "setting": "CYP3A4 [1]", "result": "[…]"},
      {"measurement": "spin shift after addition to ENNB1-saturated ND", "setting": "CYP3A4 [2]", "result": "[…]"}
    ]},
    {"smiles": "CC1=C[C@H]2O[C@@H]3[C@H](O)C[C@](C)([C@@]2(CO)[C@H](O)C1=O)[C@]31CO1", "note": "[DON, Deoxynivalenol]", "values": [
      {"measurement": "inhibition of the CYP3A4-dependent metabolism of the typical substrates", "setting": "CYP3A4 [3]", "result": "weak to moderate inhibition"},
      {"measurement": "decrease of 2-OH ATVS lactone (minor product) formation", "setting": "CYP3A4 [3]; human, pH 7.4", "result": "about 20%"},
      {"measurement": "reduction of CYP3A reactivity", "setting": "CYP3A [4]", "result": "about 20%"},
      {"measurement": "formation of hydroxylated ENNB1 metabolites vs assays only containing ENNB1", "setting": "CYP3A4 [5]", "result": "significantly lower"},
      {"measurement": "effect on MDZ metabolite formation profiles", "setting": "CYP3A [6]; HLM, DON up to 50 µM", "result": "Only an indication of a slight change"},
      {"measurement": "effect on MDZ depletion kinetics", "setting": "CYP3A [6]; HLM, DON up to 50 µM, data not shown", "result": "did not have a significant effect"},
      {"measurement": "effect on formation of ENNB1 metabolites M3/4, M5, M6 (sum)", "setting": "CYP3A4/5", "result": "inhibited the formation of the hydroxylated ENNB1 metabolites M3/4, M5, and M6 in HLM significantly"},
      {"measurement": "effect on depletion of ENNB1", "setting": "CYP3A4/5; data not shown", "result": "did not observe a significant difference"}
    ]},
    {"smiles": "CC[C@H](C)[C@H]1C(=O)O[C@H](C(C)C)C(=O)N(C)[C@@H](C(C)C)C(=O)O[C@H](C(C)C)C(=O)N(C)[C@@H](C(C)C)C(=O)O[C@H](C(C)C)C(=O)N1C", "note": "[ENNB1, Enniatin B1]", "values": [
      {"measurement": "CLint, assay", "setting": "[7]; 1 mL assay, 2 mg microsomal protein", "result": 0.07, "unit": "mL/min"},
      {"measurement": "unchanged molecule detectable", "setting": "[7]; incubation of 6 µM for 60 min", "result": "less than 4%"},
      {"measurement": "k el at 3 µM", "setting": "[7]; human, human liver microsomes, pH 7.4, ENNB1 concentration 3 µM, read-out: ke (converted)", "result": 0.00108, "unit": "s⁻¹"},
      {"measurement": "half-life at 3 µM", "setting": "[7]; human, human liver microsomes, pH 7.4, substrate concentration 3 µM, read-out: t1/2, assay", "result": 11, "unit": "min"},
      {"measurement": "Km", "setting": "[7]; human, liver microsomes, pH 7.4, derived from depletion assays with three ENNB1 concentrations (0.8; 3; 6 µM)", "result": 10.1, "unit": "µM"},
      {"measurement": "spin shift of CYP3A4 haem iron (binding)", "setting": "CYP3A4 [2]; ND, ENNB1 21 µM", "result": "visible spectral change"},
      {"measurement": "bioavailability", "setting": "[8]; human liver microsomes, po, assuming complete absorption from the gastrointestinal tract, read-out: fmax (maximum oral bioavailability)", "result": 45, "unit": "%"},
      {"measurement": "CLint", "setting": "[8]; human, MRI = 40 mg/g, RLW = 22 g/kg BW", "result": "1.72 L/(h×kg×BW)"},
      {"measurement": "CLb", "setting": "[8]; human, well-stirred model, Q = 1.4 L/(h × kg), fu,b ≈ 1", "result": "0.77 L/(h×kg×BW)"},
      {"measurement": "bioavailability", "setting": "[9]", "result": "> 90", "unit": "%"},
      {"measurement": "1,4-OH-MDZ level relative to ENNB1-free metabolism", "setting": "CYP3A [6]; HLM, after 60 min, with ENNB1", "result": "reduced to the half"},
      {"measurement": "1-OH-MDZ level relative to ENNB1-free metabolism", "setting": "CYP3A [6]; HLM, after 60 min, with ENNB1", "result": "returned to normal"},
      {"measurement": "MDZ metabolite formation in presence of ENNB1", "setting": "CYP3A [6]; HLM, first 15 min", "result": "generally hindered"},
      {"measurement": "half-life at […]", "setting": "in vitro", "result": 12, "unit": "min"},
      {"measurement": "bioavailability", "setting": "[10]", "result": "< 10", "unit": "%"}
    ]},
    {"smiles": "CC(C)[C@H]1C(=O)O[C@H](C(C)C)C(=O)N(C)[C@@H](C(C)C)C(=O)O[C@H](C(C)C)C(=O)N(C)[C@@H](C(C)C)C(=O)O[C@H](C(C)C)C(=O)N1C", "note": "[ENNB, Enniatin B]", "values": [
      {"measurement": "no-observed adverse effect level (NOAEL)", "setting": "female mice", "result": "0.18 mg/kg body-weight (bw)/day"},
      {"measurement": "bioavailability", "setting": "[9]", "result": "> 90", "unit": "%"},
      {"measurement": "bioavailability", "setting": "[10]", "result": "< 10", "unit": "%"}
    ]},
    {"smiles": "Cc1ncc2n1-c1ccc(Cl)cc1C(c1ccccc1F)=NC2", "note": "[MDZ, midazolam]", "values": [
      {"measurement": "Km", "setting": "CYP3A4 [11]; read-out: KM,1-OH-MDZ, 1-hydroxylation of MDZ", "result": 3.9, "unit": "µM"},
      {"measurement": "Km", "setting": "CYP3A4 [11]; read-out: KM,4-OH-MDZ, 4-hydroxylation of MDZ", "result": 77.5, "unit": "µM"},
      {"measurement": "half-life", "setting": "CYP3A [12]", "result": 12, "unit": "min"},
      {"measurement": "initial MDZ detectable", "setting": "CYP3A [6]; human, pH 7.4", "result": "about 0.2%"}
    ]},
    {"smiles": "CC(=O)[C@H]1CC[C@H]2[C@@H]3CCC4=CC(=O)CC[C@]4(C)[C@H]3CC[C@]12C", "note": "[PGS, progesterone, reference compound]", "values": [
      {"measurement": "PGS hydroxylation rate (sum of 2β- and 6β-OH-PGS)", "setting": "CYP3A4 [3]; PGS 15 μM", "result": "5.3 ± 0.6 nmol/(min×nmol CYP3A4)"},
      {"measurement": "PGS hydroxylation rate (sum of 2β- and 6β-OH-PGS)", "setting": "CYP3A4 [3]; PGS 40 μM", "result": "10.4 ± 1.0 nmol/(min×nmol CYP3A4)"}
    ]}
  ]
}
